Read-outs that look alike come from different tables or passages of the source.

The experiment concerns HCV pseudoparticles (genotype 1a HCV E1 and E2 envelope, H77C isolate). The experiment is described as follows: microbe, parasite or virus in culture. It counts as cell-based. The following applies: Hepatitis C virus.
[1] abbreviates: Huh-7, 48 h, HCV pseudoparticle infection of Huh7 cells, luciferase 2 days after infection, average of duplicates.
Setting [2] is: Huh-7, 48 h, read-out: Activity (EC50 class), HCV pseudoparticle infection of Huh7 cells, luciferase 2 days after infection, EC50 expressed as class A/B.
[3] abbreviates: Huh-7, 48 h, read-out: Activity (EC50 class), HCV pseudoparticles, Huh7 cells, luciferase 2 days after infection, average of duplicates.
The mark [4] stands for this setting: Huh-7, 48 h, HCV pseudoparticles (genotype 1a, H77C) in Huh7 cells, average of duplicate, luciferase 2 days after infection.
The mark [5] stands for this setting: Huh-7, read-out: Activity (EC50 class), HCV pseudoparticles (genotype 1a, H77C) in Huh7 cells, EC50 expressed as class A/B.

By EC50 is commonly meant the concentration needed to bring the measured effect to its halfway point. Turning to `COc1ccc(CNC(=O)C(=O)NC[C@H](NC(=O)c2ccc(Nc3nc(NC4(c5ccc(Cl)cc5)CC4)nc(OCC(F)(F)F)n3)cc2)C(=O)O)c(OC)c1` [Compound 1172], a half-maximal response under setting [1] (EC50) required 9.26 nM and the half-maximal effective concentration (EC50) under setting [2] was 0.01 to 10 nM.

As for `COC(=O)[C@H](CCNC(=O)C(=O)Nc1cccc(-c2ccccc2)c1)NC(=O)c1ccc(Nc2nc(NC3(c4ccc(Cl)cc4)CC3)nc(OCC(F)(F)F)n2)cc1` [Compound 1522], the concentration giving a half-maximal response (EC50) was 0.1 nM under setting [1] and 0.01 to 10 nM under setting [2].

Turning to `O=C(NCC1(CNC(=O)c2ccc(Nc3nc(NC4(c5ccc(Cl)cc5)CC4)nc(OCC(F)(F)F)n3)cc2)CC1)C(=O)Nc1ccc(F)cc1` [Compound 1566], the EC50 under setting [2] is 0.01 to 10 nM.

As to `COC(=O)[C@H](CCNC(=O)C(=O)Nc1cccc(-n2ccnc2)c1)NC(=O)c1ccc(Nc2nc(NC3(c4ccc(Cl)cc4)CC3)nc(OCC(F)(F)F)n2)cc1` [Compound 3610], the EC50 under setting [3] is 0.01 to 10 nM.

Take `CC(C)(CNC(=O)C(=O)NO)CNC(=O)c1ccc(Nc2nc(NC3(c4ccc(Cl)cc4)CC3)nc(OCC(F)(F)F)n2)cc1` [Compound 3074]: the EC50 is 0.054 nM under setting [4] and 0.01 to 10 nM under setting [5].

On to `COC(=O)[C@H](CCNC(=O)C(=O)Nc1ccc(-c2ccccc2C)cc1)NC(=O)c1ccc(Nc2nc(NC3(c4ccc(Cl)cc4)CC3)nc(OCC(F)(F)F)n2)cc1` [Compound 3304], for which, under setting [5], the EC50 was 0.01 to 10 nM.

As for `COc1ccc(NC(=O)C(=O)NCC(C)(C)CNC(=O)c2ccc(Nc3nc(NC4(c5ccc(Cl)cc5)CC4)nc(OCC(F)(F)F)n3)cc2)c(C)c1` [Compound 3068], the EC50 under setting [5] lay within 0.01 to 10 nM.

As to `N#Cc1ccc(-c2ccc(NC(=O)C(=O)NC/C(=N/C(=O)c3ccc(Nc4nc(NC5(c6ccc(Cl)cc6)CC5)nc(OCC(F)(F)F)n4)cc3)C(=O)O)cc2)cc1` [Compound 3170], the half-maximal effective concentration (EC50) reads like this: under setting [4], 0.63 nM; under setting [5], 0.01 to 10 nM.

For `CC(C)(CNC(=O)C(=O)Nc1cccc(-c2ccc(Cl)cc2)c1)CNC(=O)c1ccc(Nc2nc(NC3(c4ccc(Cl)cc4)CC3)nc(OCC(F)(F)F)n2)cc1` [Compound 1586], the EC50 under setting [2] is 0.01 to 10 nM.

Turning to `COC(=O)[C@H](CNC(=O)C(=O)NCC1CC[C@H]2C[C@@H]1C2(C)C)NC(=O)c1ccc(Nc2nc(NC3(c4ccc(Cl)cc4)CC3)nc(OCC(F)(F)F)n2)cc1` (some centres unmarked) [Compound 1453], the EC50 under setting [2] was in the range of 0.01 to 10 nM.

`COC(=O)[C@H](CCNC(=O)C(=O)NCCc1cccnc1)NC(=O)c1ccc(Nc2nc(NC3(c4ccc(Cl)cc4)CC3)nc(OCC(F)(F)F)n2)cc1` [Compound 1316]: the half-maximal effective concentration (EC50) was 0.57 nM under setting [1] and 0.01 to 10 nM under setting [2].

Regarding `O=C(NCC[C@H](NC(=O)c1ccc(Nc2nc(NC3(c4ccc(Cl)cc4)CC3)nc(OCC(F)(F)F)n2)cc1)C(=O)O)C(=O)Nc1cc[nH]n1` [Compound 1265], the EC50 under setting [2] fell in the range of 0.01 to 10 nM.

As to `Cc1ccc(NC(=O)C(=O)NCC(C)(C)CNC(=O)c2ccc(Nc3nc(NC4(c5ccc(Cl)cc5)CC4)nc(OCC(F)(F)F)n3)cc2)cc1Cl` [Compound 1541], the EC50 under setting [2] was in the range of 0.01 to 10 nM.

Take `CC(C)(CNC(=O)C(=O)Nc1ccc(OC(F)(F)F)cc1)CNC(=O)c1ccc(Nc2nc(NC3(c4ccc(Cl)cc4)CC3)nc(OCC(F)(F)F)n2)cc1F` [Compound 3559]: under setting [5], the concentration for a half-maximal effect (EC50) fell in the range of 0.01 to 10 nM.

`CNS(=O)(=O)c1cccc(NC(=O)C(=O)NC[C@H](NC(=O)c2ccc(Nc3nc(NC4(c5ccc(Cl)cc5)CC4)nc(OCC(F)(F)F)n3)cc2)C(=O)Cl)c1` [Compound 3782]: the concentration for a half-maximal effect (EC50) under setting [3] lay within 0.01 to 10 nM.

Consider `O=C(NCC[C@H](NC(=O)c1ccc(Nc2nc(NC3(c4ccc(Cl)cc4)CC3)nc(OCC(F)(F)F)n2)cc1)C(=O)O)C(=O)Nc1cccc(-c2c[nH]cn2)c1` [Compound 3656], for which the EC50 under setting [3] was 0.01 to 10 nM.

In the case of `COC(=O)[C@H](CCNC(=O)C(=O)N[C@H]1C[C@H]1c1ccccc1)NC(=O)c1ccc(Nc2nc(NC3(c4ccc(Cl)cc4)CC3)nc(OCC(F)(F)F)n2)cc1` [Compound 1317], under setting [2], the EC50 was in the range of 0.01 to 10 nM.

For `O=C(NCc1c(F)cccc1F)C(=O)NC[C@H](NC(=O)c1ccc(Nc2nc(NC3(c4ccc(Cl)cc4)CC3)nc(OCC(F)(F)F)n2)cc1)C(=O)O` [Compound 1170], the EC50 under setting [2] was in the range of 0.01 to 10 nM.

With `CC(C)(CNC(=O)C(=O)Nc1ccc(CNC(N)=O)cc1)CNC(=O)c1ccc(Nc2nc(NC3(c4ccc(Cl)cc4)CC3)nc(OCC(F)(F)F)n2)cc1` [Compound 3671], under setting [3], the EC50 fell in the range of 0.01 to 10 nM.

Consider `COC(=O)[C@H](CCNC(=O)C(=O)NC1CCCC(C)C1)NC(=O)c1ccc(Nc2nc(NC3(c4ccc(Cl)cc4)CC3)nc(OCC(F)(F)F)n2)cc1` (some centres unmarked) [Compound 1076], for which, under setting [2], the half-maximal effective concentration (EC50) lay within 0.01 to 10 nM.

In the case of `COC(=O)[C@H](CNC(=O)C(=O)Nc1cccc(OC)c1)NC(=O)c1ccc(Nc2nc(NC3(c4ccc(Cl)cc4)CC3)nc(OCC(F)(F)F)n2)cc1` [Compound 1250], the half-maximal effective concentration (EC50) under setting [2] fell in the range of 0.01 to 10 nM.

As to `CC(C)(CNC(=O)C(=O)Nc1ncco1)CNC(=O)c1ccc(Nc2nc(NC3(c4ccc(Cl)cc4)CC3)nc(OCC(F)(F)F)n2)cc1` [Compound 3027], under setting [5], the concentration for a half-maximal effect (EC50) lay within 0.01 to 10 nM.

Regarding `COC(=O)[C@H](CNC(=O)C(=O)Nc1cccnc1)NC(=O)c1ccc(Nc2nc(NC3(c4ccc(Cl)cc4)CC3)nc(OCC(F)(F)F)n2)cc1` [Compound 1259], under setting [2], the EC50 was 0.01 to 10 nM.

Consider `COC(=O)[C@H](CCNC(=O)C(=O)Nc1nccn1C)NC(=O)c1ccc(Nc2nc(NC3(c4ccc(Cl)cc4)CC3)nc(OCC(F)(F)F)n2)cc1` [Compound 1222], for which the half-maximal effective concentration (EC50) under setting [2] is 0.01 to 10 nM.

As to `O=C(NC1CCCCC1)C(=O)N1CCCC(CNC(=O)c2ccc(Nc3nc(NC4(c5ccc(Cl)cc5)CC4)nc(OCC(F)(F)F)n3)cc2)C1` (centres unmarked) [Compound 3489], the 50% effective concentration (EC50) under setting [5] was 0.01 to 10 nM.

On to `CC(C)(CNC(=O)C(=O)NCc1ccccc1-c1ccccc1)CNC(=O)c1ccc(Nc2nc(NC3(c4ccc(Cl)cc4)CC3)nc(OCC(F)(F)F)n2)cc1` [Compound 3035], for which the EC50 under setting [5] fell in the range of 0.01 to 10 nM.

Regarding `COC(=O)[C@H](CNC(=O)C(=O)Nc1ccc(CCO)cc1)NC(=O)c1ccc(Nc2nc(NC3(c4ccc(Cl)cc4)CC3)nc(OCC(F)(F)F)n2)cc1` [Compound 3086], under setting [5], the EC50 is 0.01 to 10 nM.

`O=C(NC/C(=N/C(=O)c1ccc(Nc2nc(NC3(c4ccc(Cl)cc4)CC3)nc(OCC(F)(F)F)n2)cc1)C(=O)O)C(=O)Nc1ccc(N2CCN(Cc3ccccc3)CC2)cc1` [Compound 3169]: under setting [5], the EC50 lay in the range of 0.01 to 10 nM.

As for `CC(C)c1ccc(NC(=O)C(=O)NCC(C)(C)CNC(=O)c2ccc(Nc3nc(NC4(c5ccc(Cl)cc5)CC4)nc(OCC(F)(F)F)n3)cc2)cc1` [Compound 1589], under setting [2], the half-maximal effective concentration (EC50) fell in the range of 0.01 to 10 nM.

For the compound `COC(=O)[C@H](CNC(=O)C(=O)Nc1cccc(C(F)(F)F)c1)NC(=O)c1ccc(Nc2nc(NC3(c4ccc(Cl)cc4)CC3)nc(OCC(F)(F)F)n2)cc1` [Compound 1251], the concentration for a half-maximal effect (EC50) under setting [2] was in the range of 0.01 to 10 nM.

On to `O=C(NCC[C@H](NC(=O)c1ccc(Nc2nc(NC3(c4ccc(Cl)cc4)CC3)nc(OCC(F)(F)F)n2)cc1)C(=O)O)C(=O)NCc1cc(F)cc(F)c1` [Compound 1192], for which, under setting [2], the EC50 lay within 0.01 to 10 nM.

For the compound `Nc1ccc(NC(=O)C(=O)NC[C@H](NC(=O)c2ccc(Nc3nc(NC4(c5ccc(Cl)cc5)CC4)nc(OCC(F)(F)F)n3)cc2)C(=O)O)nc1` [Compound 3761], under setting [3], the concentration giving a half-maximal response (EC50) fell in the range of 0.01 to 10 nM.

For the compound `COc1cc(NC(=O)C(=O)NCC[C@H](NC(=O)c2ccc(Nc3nc(NC4(c5ccc(Cl)cc5)CC4)nc(OCC(F)(F)F)n3)cc2)C(=O)O)ccc1-c1ccccc1` [Compound 1519], the concentration for a half-maximal effect (EC50) under setting [2] was 0.01 to 10 nM.

With `COc1cc2nc(NC(=O)C(=O)NCC(C)(C)CNC(=O)c3ccc(Nc4nc(NC5(c6ccc(Cl)cc6)CC5)nc(OCC(F)(F)F)n4)cc3F)sc2cc1OC` [Compound 3677], the concentration for a half-maximal effect (EC50) under setting [3] fell in the range of 0.01 to 10 nM.

For the compound `COC(=O)[C@H](CCNC(=O)C(=O)Nc1ccc(OCc2ccccc2)cc1)NC(=O)c1ccc(Nc2nc(NC3(c4ccc(Cl)cc4)CC3)nc(OCC(F)(F)F)n2)cc1` [Compound 3118], the EC50 under setting [5] was 0.01 to 10 nM.

Regarding `CC(C)(CNC(=O)C(=O)Nc1ccc(F)c(F)c1F)CNC(=O)c1ccc(Nc2nc(NC3(c4ccc(Cl)cc4)CC3)nc(OCC(F)(F)F)n2)cc1` [Compound 3262], the EC50 under setting [5] is 0.01 to 10 nM.

Take `COc1ccc(NC(=O)C(=O)NCC(C)(C)CNC(=O)c2ccc(Nc3nc(NC4(c5ccc(Cl)cc5)CC4)nc(OCC(F)(F)F)n3)cc2F)cc1` [Compound 3557]: the EC50 under setting [5] was 0.01 to 10 nM.

As to `COC(=O)[C@H](CNC(=O)C(=O)Nc1ccc(-n2ccnc2)cc1)NC(=O)c1ccc(Nc2nc(NC3(c4ccc(Cl)cc4)CC3)nc(OCC(F)(F)F)n2)cc1` [Compound 3183], the EC50 under setting [5] fell in the range of 0.01 to 10 nM.

For the compound `COC(=O)[C@H](CNC(=O)C(=O)Nc1cccc(OC(F)(F)F)c1)NC(=O)c1ccc(Nc2nc(NC3(c4ccc(Cl)cc4)CC3)nc(OCC(F)(F)F)n2)cc1` [Compound 3693], under setting [3], the concentration giving a half-maximal response (EC50) lay in the range of 0.01 to 10 nM.

For `O=C(NC[C@H](NC(=O)c1ccc(Nc2nc(NC3(c4ccc(Cl)cc4)CC3)nc(OCC(F)(F)F)n2)cc1)C(=O)O)C(=O)Nc1ccc(Cn2ccnc2)cc1` [Compound 3285], the 50% effective concentration (EC50) under setting [5] lay in the range of 0.01 to 10 nM.

For `COc1ccccc1NC(=O)C(=O)NCC(C)(C)CNC(=O)c1ccc(Nc2nc(NC3(c4ccc(Cl)cc4)CC3)nc(OCC(F)(F)F)n2)cc1` [Compound 3006], under setting [5], the 50% effective concentration (EC50) lay within 0.01 to 10 nM.

Turning to `COC(=O)[C@H](CCNC(=O)C(=O)Nc1cccnc1)NC(=O)c1ccc(Nc2nc(NC3(c4ccc(Cl)cc4)CC3)nc(OCC(F)(F)F)n2)cc1` [Compound 1238], the EC50 under setting [2] is 0.01 to 10 nM.

Take `CC(C)(CNC(=O)C(=O)Nc1nccs1)CNC(=O)c1ccc(Nc2nc(NC3(c4ccc(Cl)cc4)CC3)nc(OCC(F)(F)F)n2)cc1` [Compound 1547]: the concentration giving a half-maximal response (EC50) is, setting by setting: under setting [1], 0.06 nM; under setting [2], 0.01 to 10 nM.

For the compound `CC(C)(CNC(=O)C(=O)Nc1ccc(/C=C/c2ccccc2)cc1)CNC(=O)c1ccc(Nc2nc(NC3(c4ccc(Cl)cc4)CC3)nc(OCC(F)(F)F)n2)cc1` [Compound 3143], the 50% effective concentration (EC50) under setting [5] fell in the range of 0.01 to 10 nM.

Source of the values: patent US8916702B2 (priority 2012, dated 2014).
